{"source": "patent US20180353460A1", "about": "“METHODS OF TREATING UROLOGICAL DISORDERS USING SARMs” (priority 2014, published 2018)", "key": {"levator ani muscle": {"tested_on": "levator ani muscle", "test": "Levator ani muscle weight in castrated rats treated subcutaneously for 14 days", "format": "in vivo, rat", "settings": "castrated Sprague Dawley rats, subcutaneous, 3 mg/day", "description": "At sacrifice, organs were weighed and expressed as raw organ weights. Values are expressed as average±S.D. Increased size and strength of pelvic floor muscles is one mechanism by which SARMs are believed to affect UI.\nAt sacrifice, organs were weighed and expressed as raw organ weights. Values are expressed as average±S.D."}, "[1]": {"tested_on": "postmenopausal women with SUI", "test": "Proof of concept clinical study: 24 hour pad weight test", "format": "in vivo, human", "settings": "for Mean Pad Weights % Reduction: week 12", "description": "(§1) Secondary Objectives: • To describe the effect of 12 weeks of treatment of Compound IX on the number of voids/day as assessed by the 3 days voiding diary. […] See Tables 2 (individual subject data) and Tables 4-6 (mean pad weight data for sites 1, 2, and 3, respectively), and FIG. 17 for mean and median reductions in pad weights from baseline to week 12 (across all sites). • To describe the effect of 12 weeks of treatment of Compound IX on SUI as assessed by the Urethral Pressure Profile (UPP). The UPP assessment was removed from the protocol because it is invasive and not standard of care. […] See summary data for all subjects across the 3 sites reported in Table 7 and FIGS. 13A and 13B. • Described is the effect of 12 weeks of treatment of Compound IX on subject reported impression of stress urinary incontinence severity as assessed by the Patient Global Impression of Severity Scale (PGI-S). See summary data for all subjects across the 3 sites reported in FIG. 12A. • Described is the effect of 12 weeks of treatment of Compound IX on subject reported impression of improvement as assessed by the Patient Global Impression of Improvement Scale (PGI-I). See summary data for all subjects across the 3 sites reported in FIG. 12B. • Described is the effect of 12 weeks of treatment of Compound IX on subject reported urogenital distress as assessed by the Urinary Distress Inventory Questionnaire (UDI-6). See summary data for all subjects across of 3 sites reported in Table 7 and FIG. 12C. • Described is the effect of 12 weeks of treatment of Compound IX on subject reported impact of urinary incontinence on daily life as assessed by the Incontinence Impact Questionnaire (IIQ-7). See summary data for all subjects across the 3 sites reported in Table 7 and FIG. 12D. • Described is the effect of 12 weeks of treatment of Compound IX on subject reported sexual function as indicated on the completion of the Female Sexual Function Index Questionnaire (FSFI). See summary data for all subjects across the 3 sites reported in Table 7 and FIG. 15. • Described is the effect of 12 weeks of treatment of Compound IX on pelvic floor muscles as measured by MRI. See FIG. 11 wherein the pelvic MRI for one representative subject on trial is reported at baseline and at 12 weeks, FIG. 16 wherein the pelvic MRI's for three representative subjects on trial are reported at baseline and at 12 weeks, and Example 19 and Table 13 which provide individual measurements of levator ani thickness, inner and outer diameter of the urethra, and endometrial thickness, and mean changes in the same from baseline to week 12.\nReported herein are data for the first 18 patients at 12 weeks for the secondary endpoints of 24 hour pad weight test (Tables 2 and 4-6, and FIG. 17) and change in levator ani muscle, urethra, and endometrium for a selected subjects from Baseline to Week 12 as measured by quantitative MRI (FIGS. 11 and 16, Table 13 and Example 19). Data collection/analysis for these and additional secondary endpoints such as frequency of daily voids, urine volume per void, and bladder stress test is still ongoing.\nOverall, the median pad weight decreased by 78%, from 31.07 grams at baseline to 6.97 grams at week 12; whereas mean pad weights decreased by 71% from 74.26 grams at baseline to 21.4 grams at week 12."}, "male and female humans": {"tested_on": "male and female humans", "test": "Phase 3 studies G300504 and G300505: lean body mass", "format": "in vivo, human", "settings": "3 mg daily, two phase 3 studies", "description": "Extensive clinical data related to the use of Compound IX are described below; however, there are both preclinical and clinical data supporting the specific investigation of Compound IX for the treatment of SUI. Among the preclinical findings are that Compound IX has androgenic and anabolic activity in male and female rat models. […] These studies together provide an approximation of the expected effect of Compound IX, since currently there are no data in female models regarding levator ani hypertrophy or stress urinary incontinence. […] Based upon these preclinical and clinical analyses, a significant growth/bulking of the levator ani in females with SUI was anticipated, which may also result in improvements in associated symptoms, and are therefore the focus of the study outlined herein."}, "[2]": {"tested_on": "levator ani muscle, urethra and endometrium", "test": "Proof of concept clinical study: quantitative pelvic MRI", "format": "in vivo, human", "description": "as §1\nQuantitative MRI was used to visualize the pelvic floor of all post-menopausal subjects with SUI.\nIn a continuation of the same study from Example 3, quantitative MRI was used to visualize the pelvic floor of 17 post-menopausal subjects with SUI. MRI was used to visualize and measure the mean thickness of the levator ani muscle, inner and outer diameter of the urethra, and the endometrial thickness of patients on trial at baseline and at the MRI visits approximately 12 weeks after baseline (exact times between baseline and second MRI are given). All data analysis used a significance value of 0.05 with one-tailed paired t-test. The mean change in each measurement and the statistical significance calculation for each value are given below: […]"}, "[3]": {"tested_on": "postmenopausal women with SUI and UUI", "test": "Proof of concept clinical study: urge incontinence leaks per day", "format": "in vivo, human", "description": "Unexpectedly, Compound IX reduced the median and mean number of urge leaks by ˜60-70% at the week 12 endpoint (Table 12). FIG. 14 provides mean urge leaks/day data over the course of the study in these 11 patients. At baseline the mean was 1.41 urge leaks per day which was reduced to 0.45 urge leaks per day at weak 12, representing a 68% decrease from baseline. Further, the effect on urge incontinence is durable for at least 7 months (N=7) with 0.62 urge leaks per day at 40 weeks (7 months after the last dose of Compound IX). It was unexpected to see any effect of Compound IX on urge incontinence much less such a dramatic and durable effect.\nTo summarize: while all of the women in the trial had predominant SUI, some also experienced urge urinary incontinence (UUI)."}, "[4]": {"settings": "17 subjects, baseline to about week 12"}, "[5]": {"settings": "individual patients, about 12 weeks"}}, "note": "“And” between values parts separate entries of the source, which are not always exact repeats. Equal values may be shown once."}
{"smiles": "C[C@](O)(COc1ccc(C#N)cc1)C(=O)Nc1ccc(C#N)c(C(F)(F)F)c1", "note": "[Compound IX, (S)—N-(4-Cyano-3-(trifluoromethyl)phenyl)-3-(4-cyanophenoxy)-2-hydroxy-2-methylpropanamide]", "values": [{"measurement": "levator ani muscle weight", "setting": "levator ani muscle", "value": "elicits hypertrophy of the levator ani muscle"}, {"measurement": "Mean Pad Weights % Reduction", "setting": "[1]; Site 1 (n = 10)", "value": 77, "unit": "%"}, {"measurement": "Mean Pad Weights % Reduction", "setting": "[1]; Site 2 (n = 5)", "value": 66, "unit": "%"}, {"measurement": "Mean Pad Weights % Reduction", "setting": "[1]; Site 3 (n = 2)", "value": 74, "unit": "%"}, {"measurement": "decrease of mean pad weight at week 12", "setting": "[1]; all sites", "value": "71% and 78%"}, {"measurement": "decrease of median pad weight at week 12", "setting": "[1]; all sites", "value": "78% and 71%"}, {"measurement": "median pad weight at week 12", "setting": "[1]; baseline 31.07 grams", "value": 6.97, "unit": "grams"}, {"measurement": "mean pad weight at week 12", "setting": "[1]; baseline 74.26 grams", "value": 21.4, "unit": "grams"}, {"measurement": "Pad Weights at Week 12", "setting": "[1]; individual patients, 3 mg/day p.o., 24 hour pad weight", "value": "7.31 grams and 7.74 grams and 4.54 grams and 26.93 grams and 3.58 grams and −2.3 grams and 204.4 grams and 14.3 grams and 10.1 grams and 29 grams and 6.9 grams and 5.63 grams and 3.9 grams and 6.13 grams and 7.04 grams and 37.27 grams and 6.48 grams and 6.71 grams"}, {"measurement": "% Reduction in pad weight (Week 12)", "setting": "[1]; individual patients, week 12 vs baseline", "value": "88% and 55% and 52% and 45% and 98% (2×) and “126%” and 51% and 82% and 75% and 81% and 91% (2×) and 59% and 80% and 27%"}, {"measurement": "increase in lean body mass", "setting": "male and female humans", "value": "approximately 1.7%"}, {"measurement": "mean change in levator ani muscle thickness", "setting": "[2]; 17 subjects, baseline 4.79 mm to week 12, p=0.006", "value": 1.15, "unit": "mm"}, {"measurement": "mean change in urethra inner diameter", "setting": "[2]; [4]", "value": 0.07, "unit": "cm"}, {"measurement": "mean change in urethra outer diameter", "setting": "[2]; [4]", "value": 0.07, "unit": "cm"}, {"measurement": "Endometrial stripe, follow up MRI", "setting": "[2]; [5]", "value": "2 mm (9×) and 3 mm (2×) and 5 mm and 4 mm (2×)"}, {"measurement": "Mean levator ani (LA) thickness at the level of the proximal urethra, follow up MRI", "setting": "[2]; [5]", "value": "4 mm (3×) and 5 mm (3×) and 6 mm (4×) and 1 mm and 6.5 mm and 8 mm and 10.5 mm and 7 mm (2×) and 10 mm"}, {"measurement": "Urethra inner diameter, follow up MRI", "setting": "[2]; [5]", "value": "1.4 cm (2×) and 1.1 cm (3×) and 1.2 cm (2×) and 1 cm (4×) and 0.9 cm (2×) and 1.3 cm (4×)"}, {"measurement": "Urethra outer diameter, follow up MRI", "setting": "[2]; [5]", "value": "1.7 cm (2×) and 1.6 cm (5×) and 1.8 cm (3×) and 1.4 cm (2×) and 1.2 cm and 2 cm and 1.9 cm and 1.3 cm (2×)"}, {"measurement": "mean increase in inner urethral muscle diameter", "setting": "[2]; week 12, baseline 10.7 mm, p=0.002", "value": 0.7, "unit": "mm"}, {"measurement": "mean increase in outer urethral muscle diameter", "setting": "[2]; week 12, baseline 15.4 mm, p=0.0003", "value": 0.7, "unit": "mm"}, {"measurement": "Median urge incontinence leaks per day, Week 12", "setting": "[3]; 11 patients with >0 baseline leaks, baseline 1.3", "value": 0.3}, {"measurement": "Mean urge incontinence leaks per day, Week 12", "setting": "[3]; 11 patients with >0 baseline leaks, baseline 1.41", "value": 0.45, "unit": "leaks/day"}, {"measurement": "mean urge leaks per day at 40 weeks", "setting": "[3]; N=7, 7 months after the last dose", "value": 0.62, "unit": "urge leaks per day"}, {"measurement": "Number of Urge Incontinence Leaks per Day, Week 12", "setting": "[3]; individual patients, 3 mg/day p.o.", "value": "0 (10×) and 0.33 and 1 (2×) and 0.3 and 2.7 and 1.67 and 0.67"}, {"measurement": "women with a reduction in UUI episodes per day of at least 50 percent", "setting": "[3]; week 12", "value": "8 of 11"}, {"measurement": "women with a reduction in their number of UUI leaks compared to baseline", "setting": "[3]; week 12", "value": "9 of 11 and 11 of 11"}, {"measurement": "reduction of median and mean number of urge leaks", "setting": "[3]; week 12 endpoint, 11 patients", "value": "60-70%"}]}
